Measured values from the supplement of paper PMC11061612.

Tests used:
Experiment in all cases: Bliss excess, mean over the matrix (fraction); higher = more synergy
[1] = test system: COLO-824 (Breast Carcinoma)
Summary of the method: (§1)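 Bliss excess equals the observed combination effect minus the expected value EA + EB − EA·EB, where EA and EB are the effects of each agent alone. Combination Emax is the second-highest inhibition within the matrix. Inhibition was scaled from CellTiter-Glo 2.0 luminescence, with 0 set by vehicle wells and 1 by blank wells, after 72 hours of two-drug dosing of cells plated in 1536-well plates.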

[2] = test system: SISO (Cervical Carcinoma)
Summary of the method: as §1

CAS-1 (Glioblastoma) = test system: CAS-1 (Glioblastoma)
Summary of the method: as §1

ARH-77 (Non-Cancerous) = test system: ARH-77 (Non-Cancerous)
Summary of the method: as §1

A498 (Kidney Carcinoma) = test system: A498 (Kidney Carcinoma)
Summary of the method: as §1

[3] = test system: BICR22 (Oral Cavity Carcinoma)
Summary of the method: as §1

[4] = test system: NCI-H1650 (Lung Adenocarcinoma)
Summary of the method: as §1

[5] = test system: NCI-H2066 (Squamous Cell Lung Carcinoma)
Summary of the method: as §1

[6] = test system: NCI-H1581 (Non-Small Cell Lung Carcinoma)
Summary of the method: as §1

[7] = test system: COR-L311 (Small Cell Lung Carcinoma)
Summary of the method: as §1

[8] = test system: CCK-81 (Colorectal Carcinoma)
Summary of the method: as §1

[9] = test system: CAL-29 (Bladder Carcinoma)
Summary of the method: as §1

[10] = test system: SK-MES-1 (Squamous Cell Lung Carcinoma)
Summary of the method: as §1

GI-ME-N (Neuroblastoma) = test system: GI-ME-N (Neuroblastoma)
Summary of the method: as §1

[11] = test system: SK-MG-1 (Low Grade Glioma)
Summary of the method: as §1

Hs-445 (Non-Cancerous) = test system: Hs-445 (Non-Cancerous)
Summary of the method: as §1

[12] = test system: NCI-H1666 (Lung Adenocarcinoma)
Summary of the method: as §1

[13] = test system: CAPAN-2 (Pancreatic Carcinoma)
Summary of the method: as §1

[14] = test system: ONS-76 (Other Solid Carcinomas)
Summary of the method: as §1

[15] = test system: TT (Thyroid Gland Carcinoma)
Summary of the method: as §1

Structure (SMILES)	Bliss excess [1]	Bliss excess [2]	Bliss excess (CAS-1 (Glioblastoma))	Bliss excess (ARH-77 (Non-Cancerous))	Bliss excess (A498 (Kidney Carcinoma))	Bliss excess [3]	Bliss excess [4]	Bliss excess [5]	Bliss excess [6]	Bliss excess [7]	Bliss excess [8]	Bliss excess [9]	Bliss excess [10]	Bliss excess (GI-ME-N (Neuroblastoma))	Bliss excess [11]	Bliss excess (Hs-445 (Non-Cancerous))	Bliss excess [12]	Bliss excess [13]	Bliss excess [14]	Bliss excess [15]
Cc1c2c(nn1C)CSCc1cc(n(C)n1)CSc1cc(c3ccccc3c1)OCCCc1c(C(=O)O)n(C)c3c-2c(Cl)ccc13 [AZD5991] + Cc1cc2ncnn2cc1Nc1ncc2c(n1)n(C1CCOCC1)c(=O)n2C [AZD7648] (first compound max 1 µM, 7x7, partner max 10 µM)	-0.0187	-0.0221	-0.0723	-0.024	-0.0249	0.0158	-0.0408	-0.0141	-0.0026	0.0101	-0.0103	0.014	-0.0471	-0.0863	-0.0349	-0.0109	-0.0666	0.0141	-0.0236	-0.0112
CN(CCO)CC[C@H](CSc1ccccc1)Nc1ccc(S(=O)(=O)NC(=O)c2ccc(N3CCC([C@@H](O)c4ccccc4-c4ccc(Cl)cc4)CC3)cc2)cc1S(=O)(=O)C(F)(F)F [AZD4320] + C=CCn1c(=O)c2cnc(Nc3ccc(N4CCN(C)CC4)cc3)nc2n1-c1cccc(C(C)(C)O)n1 [AZD1775] (first compound max 1 µM, partner max 1 µM)	0.0803	-0.0116	0.0261	-0.0449	0.0368	0.0848	-0.0096	-0.0534	0.059	-0.0091	-0.0198	0.0124	0.0356	-0.0524	0.064	0.165	-0.0717	0.0665	-0.0196	-0.0048
CS(=O)(=O)CCNCc1ccc(-c2ccc3ncnc(Nc4ccc(OCc5cccc(F)c5)c(Cl)c4)c3c2)o1 [Lapatinib] + C[C@@H](Oc1cc(-c2cnn(C3CCNCC3)c2)cnc1N)c1c(Cl)ccc(F)c1Cl [Crizotinib] (first compound max 10 µM, 7x7, partner max 10 µM)	0.002	-0.0214	-0.0634	-0.0445	-0.0592	-0.0388	0.0253	-0.0066	0.0208	-0.0024	-0.0255	0.0215	-0.0288	-0.0505	-0.0513	0.0147	-0.0698	-0.0341	-0.0667	-0.002
Cc1c2c(nn1C)CSCc1cc(n(C)n1)CSc1cc(c3ccccc3c1)OCCCc1c(C(=O)O)n(C)c3c-2c(Cl)ccc13 [AZD5991] + C[C@@H]1COCCN1C2=NC(=NC(=C2)C3(CC3)[S@](=N)(=O)C)C4=C5C=CNC5=NC=C4 [AZD6738] (first compound max 1 µM, 7x7, partner max 10 µM)	-0.009	0.0628	0.109	-0.014	0.107	0.0224	0.0392	0.0148	-0.0036	0.0018	0.0173	0.0409	-0.0119	0.0481	0.0868	-0.0064	0.0156	0.0543	-0.0017	-0.0066
COc1cc2c(cc1OCCCCCOc1cc3c(cc1OC)C(=O)N1C=C(C)C[C@H]1C=N3)N=C[C@@H]1CC(C)=CN1C2=O [SG3199] + O=C(c1cc(Cc2n[nH]c(=O)c3ccccc23)ccc1F)N1CCN(C(=O)C2CC2)CC1 [Olaparib] (first compound max 0.001 µM, 7x7, partner max 10 µM)	-0.03	-0.0198	-0.0058	-0.0466	-0.0336	-0.0473	-0.0575	-0.0457	-0.0322	0.0282	0.0003	-0.0154	-0.0267	-0.036	-0.0009	-0.0116	-0.0477	-0.0506	-0.0635	-0.0645
C[C@@H](c1ccc2nccn2c1)n1nnc2ncc(-c3cnn(C)c3)nc21 [Savolitinib] + CN(CC[C@H](CSC1=CC=CC=C1)NC2=C(C=C(C=C2)S(=O)(=O)NC(=O)C3=CC=C(C=C3)N4CCC(CC4)[C@H](C5=CC=CC=C5C6=CC=C(C=C6)Cl)O)S(=O)(=O)C(F)(F)F)CCO [AZD4320] (first compound max 1 µM, 7x7, partner max 1 µM)	-0.0101	-0.045	-0.0975	-0.0322	-0.0589	–	-0.0646	–	–	0.0158	–	-0.0647	-0.0188	-0.0699	-0.0651	-0.0452	–	–	–	–
CN(C)CCCOc1ccc(-c2ccc3ncc4c(c3c2)n(C2CCOCC2)c(=O)n4C)cn1 [AZD0156] + C[C@@H]1COCCN1C2=NC(=NC(=C2)C3(CC3)[S@](=N)(=O)C)C4=C5C=CNC5=NC=C4 [AZD6738] (first compound max 1 µM, 7x7, partner max 10 µM)	0.0425	0.0119	-0.0046	0.0673	-0.0347	-0.0626	-0.0294	-0.0404	0.0005	0.0265	-0.0161	0.0162	-0.0406	-0.015	0.0249	-0.0409	-0.0274	-0.0591	0.0096	-0.0583
